Assay results reported in ChEMBL document CHEMBL1667848, “Synthesis and evaluation of trehalose-based compounds as anti-invasive agents” (Bioorg Med Chem Lett, 2011).
In brackets after ≈: the same amount, converted by molar mass.

Tests used:
[1] = Antiinvasive activity against mouse 26-L5 cells by transwell migration assay; format: functional, cell-based
[2] = Cytotoxicity against mouse 26-L5 cells upto 10 ug/ml; format: cell-based
[3] = Antiinvasive activity against mouse 26-L5 cells at 1 ug/ml by transwell migration assay; format: functional

For COc1ccccc1C(=O)OC[C@H]1O[C@H](O[C@H]2O[C@H](COC(=O)c3ccccc3OC)[C@@H](O)[C@H](O)[C@H]2O)[C@H](O)[C@@H](O)[C@@H]1O, the IC50 ([1]; Mus musculus, read-out: IC50) was 1 µg/mL (≈ 1.64 µM) and the Activity [2] was “Non-toxic”.
With Cc1ccccc1C(=O)OC[C@H]1O[C@H](O[C@H]2O[C@H](COC(=O)c3ccccc3C)[C@@H](O)[C@H](O)[C@H]2O)[C@H](O)[C@@H](O)[C@@H]1O the IC50 [1] was “Not Active” and the Activity [2] was “Non-toxic”.
With COc1ccc(C(=O)OC[C@H]2O[C@H](O[C@H]3O[C@H](COC(=O)c4ccc(OC)cc4)[C@@H](O)[C@H](O)[C@H]3O)[C@H](O)[C@@H](O)[C@@H]2O)cc1 the IC50 [1] was “Not Active” and the Activity [2] was “Non-toxic”.
With O=C(OC[C@H]1O[C@H](O[C@H]2O[C@H](COC(=O)c3ccc(O)cc3)[C@@H](O)[C@H](O)[C@H]2O)[C@H](O)[C@@H](O)[C@@H]1O)c1ccc(O)cc1 the IC50 ([1]; Mus musculus, read-out: IC50) was 1 µg/mL (≈ 1.72 µM) and the Activity [2] was “Non-toxic”.
In the case of COc1cccc(C(=O)OC[C@H]2O[C@H](O[C@H]3O[C@H](COC(=O)c4cccc(OC)c4OC)[C@@H](O)[C@H](O)[C@H]3O)[C@H](O)[C@@H](O)[C@@H]2O)c1OC, the IC50 ([1]; Mus musculus, read-out: IC50) was 0.1 µg/mL (≈ 0.149 µM) and the Activity [2] was “Non-toxic”.
For COc1cc(C(=O)OC[C@H]2O[C@H](O[C@H]3O[C@H](COC(=O)c4cc(OC)c(OC)c(OC)c4)[C@@H](O)[C@H](O)[C@H]3O)[C@H](O)[C@@H](O)[C@@H]2O)cc(OC)c1OC, the IC50 [1] was “Not Active” and the Activity [2] was “Non-toxic”.
In the case of COc1cc(C(=O)OC[C@H]2O[C@H](O[C@H]3O[C@H](COC(=O)c4ccc(F)c(OC)c4)[C@@H](O)[C@H](O)[C@H]3O)[C@H](O)[C@@H](O)[C@@H]2O)ccc1F, the IC50 [1] was “Not Active” and the Activity [2] was “Non-toxic”.
For O=C(OC[C@H]1O[C@H](O[C@H]2O[C@H](COC(=O)c3c(F)cccc3F)[C@@H](O)[C@H](O)[C@H]2O)[C@H](O)[C@@H](O)[C@@H]1O)c1c(F)cccc1F, the IC50 ([1]; Mus musculus, read-out: IC50) was 1 µg/mL (≈ 1.61 µM) and the Activity [2] was “Non-toxic”.
With CCNc1cccc(C)c1C(=O)OC[C@H]1O[C@H](O[C@H]2O[C@H](COC(=O)c3c(C)cccc3NCC)[C@@H](O)[C@H](O)[C@H]2O)[C@H](O)[C@@H](O)[C@@H]1O the IC50 ([1]; Mus musculus, read-out: IC50) was 1 µg/mL (≈ 1.5 µM) and the Activity [2] was “Non-toxic”.
For O=C(OC[C@H]1O[C@H](O[C@H]2O[C@H](COC(=O)c3cccc(O)c3O)[C@@H](O)[C@H](O)[C@H]2O)[C@H](O)[C@@H](O)[C@@H]1O)c1cccc(O)c1O, the IC50 ([1]; Mus musculus, read-out: IC50) was under 1 µg/mL, the inhibition at 1 µg/mL [3] was 40% and the Activity [2] was “Non-toxic”.
In the case of O=C(OC[C@H]1O[C@H](O[C@H]2O[C@H](COC(=O)c3ccccc3O)[C@@H](O)[C@H](O)[C@H]2O)[C@H](O)[C@@H](O)[C@@H]1O)c1ccccc1O, the IC50 ([1]; Mus musculus, read-out: IC50) was under 1 µg/mL, the inhibition at 1 µg/mL [3] was 35% and the Activity [2] was “Non-toxic”.
For Cc1cc(O)cc(O)c1C(=O)OC[C@H]1O[C@H](O[C@H]2O[C@H](COC(=O)c3c(C)cc(O)cc3O)[C@@H](O)[C@H](O)[C@H]2O)[C@H](O)[C@@H](O)[C@@H]1O [BRARTEMICIN], the IC50 ([1]; Mus musculus, read-out: IC50) was 0.25 µg/mL (≈ 0.389 µM) and the Activity [2] was “Non-toxic”.
